In PMC6718442, “11β-Hydroxysteroid dehydrogenases control access of 7β,27-dihydroxycholesterol to retinoid-related orphan receptor γ” (Journal of Lipid Research, 2019):
Where two headings read alike, the source gives them in different places.

Columns and labels:
human 11β-HSD1 [1] = target: T1, human 11β-HSD1 (Homo sapiens, UniProt P28845); conditions: substrate of 11β-HSD1, cited from earlier work
T1 construct: expressed in transfected cells

RORγ = target: T2, RORγ (Homo sapiens, UniProt P51449); assay: Glucose-6-phosphatase luciferase reporter in SW-620 cells overexpressing RORγ (preliminary); assay type: cell-based; parameters: expressed in transfected cells; host or cells: SW-620; conditions: inhibition of 11β-HSD2 by GA in SW-620 cells, trend
T2 sequence (P51449 1-518): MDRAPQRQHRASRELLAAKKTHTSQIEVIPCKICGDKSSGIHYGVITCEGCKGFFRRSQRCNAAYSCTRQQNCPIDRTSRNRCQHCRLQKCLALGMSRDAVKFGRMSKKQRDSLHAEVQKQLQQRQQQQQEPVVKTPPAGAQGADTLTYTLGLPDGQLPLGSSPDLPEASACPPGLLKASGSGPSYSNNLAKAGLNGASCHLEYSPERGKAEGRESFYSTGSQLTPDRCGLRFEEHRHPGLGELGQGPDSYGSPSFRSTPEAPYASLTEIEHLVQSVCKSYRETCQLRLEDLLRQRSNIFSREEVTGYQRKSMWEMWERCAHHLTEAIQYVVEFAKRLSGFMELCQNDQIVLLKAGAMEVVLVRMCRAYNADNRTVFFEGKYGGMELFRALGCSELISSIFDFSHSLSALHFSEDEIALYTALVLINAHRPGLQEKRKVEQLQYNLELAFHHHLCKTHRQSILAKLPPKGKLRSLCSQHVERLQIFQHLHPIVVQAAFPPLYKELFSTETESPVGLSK

11β-HSD2 [2] = target: T3, 11β-HSD2 (Homo sapiens, UniProt P80365); conditions: substrate of 11β-HSD2, ref [34], cited from earlier work
T3 construct: expressed in transfected cells
T3 sequence (P80365 1-405): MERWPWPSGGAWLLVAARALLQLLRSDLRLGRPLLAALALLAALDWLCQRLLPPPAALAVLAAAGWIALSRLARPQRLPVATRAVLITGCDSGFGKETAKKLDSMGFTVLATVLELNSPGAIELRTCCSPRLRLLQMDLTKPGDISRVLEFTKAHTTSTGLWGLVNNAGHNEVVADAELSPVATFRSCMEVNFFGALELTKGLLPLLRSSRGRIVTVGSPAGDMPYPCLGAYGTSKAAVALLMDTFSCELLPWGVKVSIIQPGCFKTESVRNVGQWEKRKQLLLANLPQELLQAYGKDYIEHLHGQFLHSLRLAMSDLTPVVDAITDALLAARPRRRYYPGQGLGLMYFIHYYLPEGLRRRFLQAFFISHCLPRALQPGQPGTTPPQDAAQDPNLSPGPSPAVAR

11β-HSD2 [3] = target: T3, 11β-HSD2; parameters: method as in PMID 30902677; conditions: intact cells, oxidation by 11β-HSD2, ref [46], cited from earlier work
human 11β-HSD1 [4] = target: T1, human 11β-HSD1; parameters: method as in PMID 30902677; conditions: intact cells, oxoreduction by 11β-HSD1, ref [46], cited from earlier work

T1 sequence (P28845 whole entry): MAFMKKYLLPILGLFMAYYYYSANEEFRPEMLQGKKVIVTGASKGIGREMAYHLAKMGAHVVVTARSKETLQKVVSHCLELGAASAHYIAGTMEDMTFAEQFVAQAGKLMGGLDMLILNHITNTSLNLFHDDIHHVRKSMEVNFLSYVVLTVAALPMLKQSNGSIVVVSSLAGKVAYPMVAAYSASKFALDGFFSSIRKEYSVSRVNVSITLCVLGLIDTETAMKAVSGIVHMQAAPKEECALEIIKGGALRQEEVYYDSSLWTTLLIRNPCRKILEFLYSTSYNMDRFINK

For `CC(C)CCC[C@@H](C)[C@H]1CC[C@H]2[C@@H]3C(=O)C=C4C[C@@H](O)CC[C@]4(C)[C@H]3CC[C@]12C` [7kC, 7-ketocholesterol], the KMapp (human 11β-HSD1 [1]; ref [19]) is listed as roughly 500 nM.

For `C[C@H](CCC(=O)O)[C@H]1CC[C@H]2[C@@H]3C(=O)C[C@@H]4C[C@H](O)CC[C@]4(C)[C@H]3CC[C@]12C` [7oxoLCA, 7-oxolithocholic acid], the KMapp (human 11β-HSD1 [1]; ref [49]) is given as roughly 1000 nM.

For `C[C@]12CC(=O)[C@H]3[C@@H](CCC4=CC(=O)CC[C@@]43C)[C@@H]1CC[C@@H]2C(=O)CO` [11-DHC, 11-dehydrocorticosterone], the KMapp (human 11β-HSD1 [1]; ref [19], [34]) is listed as 250 to 500 nM.

For `CC1(C)[C@@H](O)CC[C@]2(C)[C@H]3C(=O)C=C4[C@@H]5C[C@@](C)(C(=O)O)CC[C@]5(C)CC[C@@]4(C)[C@]3(C)CC[C@@H]12` [GA, glycyrrhetinic acid], the “Increase of RORγ activity compared with cells treated with 7β27OHC only” value (RORγ) was “approximately 10%”.

In the case of `C[C@]12CCC(=O)C=C1CC[C@@H]1[C@@H]2[C@@H](O)C[C@@]2(C)[C@H]1CC[C@]2(O)C(=O)CO` [cortisol], the KMapp (11β-HSD2 [2]) is given as roughly 200 nM, the KMapp (11β-HSD2 [2]; listed as Cortisol) is given as 200 ([34]) nM and the Vapp cell intact (11β-HSD2 [3]) is given as 1.01 ± 0.35 nmol·h^−1·mg total protein^−1. The Vapp cell intact (11β-HSD2 [3]; listed as Cortisol) was 1.01 ± 0.35 ([46]) nmol·h^−1·mg total protein^−1.

For `C[C@]12CCC(=O)C=C1CC[C@@H]1[C@@H]2C(=O)C[C@@]2(C)[C@H]1CC[C@]2(O)C(=O)CO` [cortisone, reference compound], the Vapp cell intact (human 11β-HSD1 [4]) is listed as 1.59 ± 0.25 nmol·h^−1·mg total protein^−1, the Vapp cell intact (human 11β-HSD1 [4]; listed as Cortisone) is listed as 1.59 ± 0.25 ([46]) nmol·h^−1·mg total protein^−1 and the KMapp (human 11β-HSD1 [1]; ref [19], [34]) is listed as 250 to 500 nM. The KMapp (human 11β-HSD1 [1]; ref [19], [34], listed as Cortisone) was 250–500 ([19], [34]) nM.
